Measured values: the supplement of paper PMC11208160

Assay: recombinant barcode read abundance after kanamycin selection (control-corrected) (log10(CPM+1)); higher = more efficient recombination; sequences stand for … in AGTGCAGAGAAAATCGGCCAGTTTTCTCTGCCTGCAGTCCGCATGCCGT…AGATTTATGCAGCGGACTGCCTTTCTCCCAAAGTGATAAACCGGACAGTATCATGGACCGGTTTTCCCGGTAATCCGTATTTGCAAGGTTGGTTTCACT; site = the 11-nt target
In short: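 Recombination efficiency draws on barcodes counted at recombinant junctions in a pooled E. coli screen of targets paired with IS621 bridge RNA target-binding loops. The counts were converted to counts per million, averaged and corrected against the chloramphenicol/ampicillin LB agar control, then reported as log10(CPM+1). Selection plates held chloramphenicol/ampicillin/kanamycin with 0.1 mM IPTG, with two replicates per condition.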
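Also: IS621 recombinase and bridge RNA in Escherichia coli cells.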

Sequence | recombinant barcode read abundance (log10)
ATCAGGTCTTGGGTTCTAACCTGTTGCCT (site AGCAGGTCTAG) | 0.107
ATCAGGTCTTGGGTTCTAACCTGTTGCCT (site ATCAGGTCTAG) | 0.431
ATCAGTACTTGGGTTCTAACCTGTTGCCT (site ATCAGTACTAG) | 0.307
ATCAGTACTTGGGTTCTAACCTGTTGCCT (site CTGAGTACTAG) | 0.242
ATCCAGGCTTGGGTTCTAACCTGTTGCGG (site ATCCAGGCTCC) | 2.07
ATCCAGGCTTGGGTTCTAACCTGTTGCGG (site ATTCAGACTCC) | 0.00907
ATCGGAGCTTGGGTTCTAACCTGTTGCTG (site ATCGGAGCTCA) | 0.991
ATCGGAGCTTGGGTTCTAACCTGTTGCTG (site ATCGGAGCTCC) | 0.67
ATCGGAGCTTGGGTTCTAACCTGTTGCTG (site ATCGGAGCTCG) | 0.455
ATCGGAGCTTGGGTTCTAACCTGTTGCTG (site ATCGGAGCTCT) | 0.627
ATCGGATCTTGGGTTCTAACCTGTTGCCG (site ATCGGATCTCG) | 0.782
ATCGGATCTTGGGTTCTAACCTGTTGCCG (site CATAACCCTAT) | 0.349
ATCGGGCCTTGGGTTCTAACCTGTTGCCT (site ATCGGGCCTAG) | 0.47
ATCGGGCCTTGGGTTCTAACCTGTTGCCT (site CTCGGGCCTAG) | 0.0724
ATCGGGCCTTGGGTTCTAACCTGTTGCCT (site GTCGGGCCTAG) | 0.582
ATCGGGCCTTGGGTTCTAACCTGTTGCCT (site TTCGGGCCTAG) | 0.0744
ATCGTAGCTTGGGTTCTAACCTGTTGCCA (site ACCCTAGCTTG) | 0.497
ATCGTAGCTTGGGTTCTAACCTGTTGCCA (site ATCGTAGCTTG) | 0.228
ATCGTTCCTTGGGTTCTAACCTGTTGCGT (site ACCGGTCCTAC) | 0.0508
ATCGTTCCTTGGGTTCTAACCTGTTGCGT (site ATCGTTCCTAC) | 0.411
ATCTTACCTTGGGTTCTAACCTGTTGCCT (site ATCTTAACTAG) | 0.069
ATCTTACCTTGGGTTCTAACCTGTTGCCT (site ATCTTACCTAG) | 0.681

Sequence | recombinant barcode read abundance (log10)
ATCTTACCTTGGGTTCTAACCTGTTGCCT (site ATCTTAGCTAG) | 0.0332
ATCTTACCTTGGGTTCTAACCTGTTGCCT (site ATCTTATCTAG) | 0.109
ATGAAGCCTTGGGTTCTAACCTGTTGCCT (site ATGAAGCCTAG) | 1.87
ATGAAGCCTTGGGTTCTAACCTGTTGCCT (site CTGAAGCCTAG) | 0.053
ATGAAGCCTTGGGTTCTAACCTGTTGCCT (site GTGAAGCCTAG) | 0.177
ATGAAGCCTTGGGTTCTAACCTGTTGCCT (site TTGAAGCCTAG) | 0.503
ATGAGCTCTTGGGTTCTAACCTGTTGCTA (site ATGAGCTCTTA) | 1.12
ATGAGCTCTTGGGTTCTAACCTGTTGCTA (site ATGAGGTCTGA) | 0.0495
ATGAGTCCTTGGGTTCTAACCTGTTGCAA (site ATGAGTCCTTT) | 1.25
ATGAGTCCTTGGGTTCTAACCTGTTGCAA (site TGAGAGACTAC) | 0.0172
ATGATACCTTGGGTTCTAACCTGTTGCCT (site AAGATACCTAG) | 0.157
ATGATACCTTGGGTTCTAACCTGTTGCCT (site ATGATACCTAG) | 1.84
ATGCAAACTTGGGTTCTAACCTGTTGCCT (site ATGCAAACTAG) | 1.31
ATGCAAACTTGGGTTCTAACCTGTTGCCT (site ATGCAACCTAG) | 0.0759
ATGCAAACTTGGGTTCTAACCTGTTGCCT (site ATGCAAGCTAG) | 0.653
ATGCAAACTTGGGTTCTAACCTGTTGCCT (site ATGCAATCTAG) | 0.151
ATGCACGCTTGGGTTCTAACCTGTTGCCT (site ATGCACGCTAG) | 1.81
ATGCACGCTTGGGTTCTAACCTGTTGCCT (site TATATGACTCC) | 0.036
ATGCCAACTTGGGTTCTAACCTGTTGCCT (site ATGCCAACTAG) | 0.327
ATGCCAACTTGGGTTCTAACCTGTTGCCT (site ATGCCCACTAG) | 0.059
ATGCCAACTTGGGTTCTAACCTGTTGCCT (site ATGCCGACTAG) | 0.204
ATGCCAACTTGGGTTCTAACCTGTTGCCT (site ATGCCTACTAG) | 0.00977

Sequence | recombinant barcode read abundance (log10)
ATGCCCTCTTGGGTTCTAACCTGTTGCCT (site ATGACCTCTAG) | 0.688
ATGCCCTCTTGGGTTCTAACCTGTTGCCT (site ATGCCCTCTAG) | 2.07
ATGCCCTCTTGGGTTCTAACCTGTTGCCT (site ATGGCCTCTAG) | 0.0962
ATGCCCTCTTGGGTTCTAACCTGTTGCCT (site ATGTCCTCTAG) | 0.0521
ATGCCTACTTGGGTTCTAACCTGTTGCCT (site ATGCCAACTAG) | 0.0174
ATGCCTACTTGGGTTCTAACCTGTTGCCT (site ATGCCCACTAG) | 0.0532
ATGCCTACTTGGGTTCTAACCTGTTGCCT (site ATGCCGACTAG) | 0.0715
ATGCCTACTTGGGTTCTAACCTGTTGCCT (site ATGCCTACTAG) | 0.337
ATGCCTCCTTGGGTTCTAACCTGTTGCTT (site ATGCCTCCTAA) | 0.165
ATGCCTCCTTGGGTTCTAACCTGTTGCTT (site GAAGGAGCTCT) | 0.07
ATGCGTTCTTGGGTTCTAACCTGTTGCCT (site AGGTGTTCTAG) | 0.203
ATGCGTTCTTGGGTTCTAACCTGTTGCCT (site ATGCGTTCTAG) | 1.73
ATGCTTGCTTGGGTTCTAACCTGTTGCCA (site ATGCTTGCTTG) | 0.187
ATGCTTGCTTGGGTTCTAACCTGTTGCCA (site TGTGCAACTCA) | 0.299
ATGGATACTTGGGTTCTAACCTGTTGCCT (site ATGGATACTAG) | 2.26
ATGGATACTTGGGTTCTAACCTGTTGCCT (site ATGTACACTAG) | 0.22
ATGGATCCTTGGGTTCTAACCTGTTGCGT (site AGGGATCCTAC) | 0.758
ATGGATCCTTGGGTTCTAACCTGTTGCGT (site ATGGATCCTAC) | 2.77
ATGGCCTCTTGGGTTCTAACCTGTTGCCT (site ATGACCTCTAG) | 0.822
ATGGCCTCTTGGGTTCTAACCTGTTGCCT (site ATGCCCTCTAG) | 0.0852
ATGGCCTCTTGGGTTCTAACCTGTTGCCT (site ATGGCCTCTAG) | 2.2
ATGGCCTCTTGGGTTCTAACCTGTTGCCT (site ATGTCCTCTAG) | 0.0804

Sequence | recombinant barcode read abundance (log10)
ATGGGCCCTTGGGTTCTAACCTGTTGCTA (site ATGGGCCCTAA) | 0.362
ATGGGCCCTTGGGTTCTAACCTGTTGCTA (site ATGGGCCCTCA) | 1.17
ATGGGCCCTTGGGTTCTAACCTGTTGCTA (site ATGGGCCCTGA) | 0.288
ATGGGCCCTTGGGTTCTAACCTGTTGCTA (site ATGGGCCCTTA) | 2.17
ATGGGCCCTTGGGTTCTAACCTGTTGCTT (site ATGGGCCCTAA) | 2.01
ATGGGCCCTTGGGTTCTAACCTGTTGCTT (site ATGGGCCCTCA) | 0.00714
ATGGGCCCTTGGGTTCTAACCTGTTGCTT (site ATGGGCCCTGA) | 0.0928
ATGGGCCCTTGGGTTCTAACCTGTTGCTT (site ATGGGCCCTTA) | 0.243
ATGGTACCTTGGGTTCTAACCTGTTGCTA (site ATGGTACCTTA) | 2.34
ATGGTACCTTGGGTTCTAACCTGTTGCTA (site GATAACGCTAG) | 0.247
ATGGTGACTTGGGTTCTAACCTGTTGCCT (site ATGGTGACTAG) | 1.21
ATGGTGACTTGGGTTCTAACCTGTTGCCT (site ATGGTGCCTAG) | 0.296
ATGGTGACTTGGGTTCTAACCTGTTGCCT (site ATGGTGGCTAG) | 0.0522
ATGGTGACTTGGGTTCTAACCTGTTGCCT (site ATGGTGTCTAG) | 0.0769
ATGTCCTCTTGGGTTCTAACCTGTTGCCA (site ATGTCCTCTTG) | 1.02
ATGTCCTCTTGGGTTCTAACCTGTTGCCA (site GCTCGGGCTCC) | 0
ATGTCTACTTGGGTTCTAACCTGTTGCAG (site ATGTCTACTCT) | 0.673
ATGTCTACTTGGGTTCTAACCTGTTGCAG (site TGCCTATCTAA) | 0.219
ATGTGCACTTGGGTTCTAACCTGTTGCAG (site ATGTGCACTCT) | 2.15
ATGTGCACTTGGGTTCTAACCTGTTGCAG (site CTGTGCACTCG) | 0.63
